# Data taken from the NIST ThermoML archive (doi:10.1016/j.jct.2008.10.013).
# ± gives the expanded uncertainty stated by the source.
# Conditions: 298.15 K; 101.33 kPa; Liquid; Vibrating tube method
row,SMILES,mass density
1,C=C(C)[C@H]1CC=C(C)CC1 [(R)-1-methyl-4-(1-methylethenyl)cyclohexene],837.31 ± 0.31 kg/m3
2,CCO [ethanol],785.24 ± 0.19 kg/m3
3,CO [methanol],786.62 ± 0.17 kg/m3
